From patent publication US20200375987A1, “METALLO-BETA-LACTAMASE INHIBITORS AND METHODS OF USE THEREOF” (priority 2018, published 2020)

Legend:
[1] = biological target: IMP-1 (Serratia marcescens, UniProt P52699); experiment: Enzyme activity: determination of IC50, fluorescence assay with CCF2-FA substrate (IMP-1); assay type: biochemical; settings: 2 pM enzyme, 1.25 μM CCF2-FA, 2 hours at 25° C.; read-out: IMP1 IC50
Method: (§1) The Class B enzyme activities were measured in the presence of the test inhibitor in a fluorescence assay against a commercially available substrate consisting of a cephalosporin core linking 7-hydroxycoumarin to fluorescein (CCF2-FA). The enzyme (NDM-1, IMP-1 or VIM-1) and the substrate were diluted in 100 mM KH2PO4 buffer (pH 7) containing 0.005% Tween-20 and 10 μM ZnSO4. In the assay, the final concentration of enzyme was 1 pM, 2 pM and 30 pM for NDM-1, IMP-1 and VIM-1, respectively, and the final concentration of CCF2-FA was 1.25 μM. The test inhibitor was dissolved in dimethylsulfoxide and diluted 1:50 in the assay, resulting in a final concentration range of 20 μM to 0.00063 μM. In a 384-well microplate, the test inhibitor was incubated with the metallo-β-lactamase enzyme and the substrate for 2 hours at 25° C. Fluorescence at 460 nm following excitation at 405 nm was measured. The IC50 value was determined from semi-logarithmic plots of enzyme inhibition versus inhibitor concentration, with a curve generated using a 4-parameter fit.

[2] = biological target: NDM-1 (Klebsiella pneumoniae, UniProt C7C422); experiment: Enzyme activity: determination of IC50, fluorescence assay with CCF2-FA substrate (NDM-1); assay type: biochemical; settings: 1 pM enzyme, 1.25 μM CCF2-FA, 2 hours at 25° C.; read-out: NDM1 IC50
Sequence of NDM-1 (C7C422 29-270, looked up, species assumed): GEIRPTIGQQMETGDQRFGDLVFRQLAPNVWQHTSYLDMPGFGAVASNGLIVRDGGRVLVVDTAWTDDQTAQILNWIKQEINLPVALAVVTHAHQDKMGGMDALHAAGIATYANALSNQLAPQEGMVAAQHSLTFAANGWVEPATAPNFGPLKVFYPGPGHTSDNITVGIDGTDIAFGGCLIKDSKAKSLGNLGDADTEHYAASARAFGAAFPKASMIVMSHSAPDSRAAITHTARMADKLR
Method: as §1

[3] = tested on: Serratia marcescens expressing IMP-1 (CL5741); experiment: Antibiotic potentiation activity: synergistic concentration (MITC95) with imipenem; assay type: cell-based; settings: imipenem 1 μg/mL; lowest concentration inhibiting 95% of growth; 35° C., 22-24 hours
Method: (§2) The bacterial strains tested included the clinical strains Escherichia coli expressing NDM-1 (CLB30005, CLB30016), Serratia marcescens expressing IMP-1 (CL5741), and Klebsiella pneumoniae expressing VIM-1 (IHMA599644). Inhibitor activity was measured in the presence and absence of imipenem in a 384-well microplate.
(§3) The clinical strains CLB30016, CL5741 and IHMA599644 were grown on trypticase soy agar containing 5% sheep's blood. The bacteria on agar plates were incubated at 35° C. with humidity overnight. The following day, individual colonies from each clinical strain were picked and resuspended in 5 mL saline to attain an OD600 of 0.14, 0.11, 0.15 and 0.13, for CLB30016, CL5741 and IHMA599644, respectively. These were further diluted 1:100 into 1.1× CAMHB and used to inoculate the test wells as described below.
(§4) Imipenem in 10 mM 3-(N-morpholino)propanesulfonic acid (MOPS, pH 7) was stored in single use aliquots at −80° C. […] On the day of the assay, 4 μl of antibiotic was added to 45 μl of bacteria followed by 1 μl of test compound and mixed by pipetting and with an orbital shaker. The concentration of antibiotic used in the assay was 1 μg/mL. Microplates were covered and incubated at 35° C. for 22 hours to 24 hours. At the end of the incubation, absorbance was determined using a spectrophotometer. The synergistic concentration of MBLI was determined by identifying the lowest concentration of test compound in the presence of a given concentration of antibiotic that was required to inhibit 95% of the growth of the bacteria. The results for Examples 1-209 are reported in Table 1, expressed as the concentration of compound that potentiated the action of antibiotic (imipenem) affecting 95% inhibition of bacterial growth (MITC95).

[4] = tested on: Escherichia coli expressing NDM-1 (CLB30016); experiment: as above; assay type: cell-based; settings: imipenem 1 μg/mL; lowest concentration inhibiting 95% of growth; 35° C., 22-24 hours
Method: as §2, §3, §4

[5] = tested on: Klebsiella pneumoniae expressing VIM-1 (IHMA599644); experiment: as above; assay type: cell-based; settings: imipenem 1 μg/mL; lowest concentration inhibiting 95% of growth; 35° C., 22-24 hours
Method: as §2, §3, §4

[6] = biological target: VIM-1 (Pseudomonas aeruginosa, UniProt A0A0F7KYQ8); experiment: Enzyme activity: determination of IC50, fluorescence assay with CCF2-FA substrate (VIM-1); assay type: biochemical; settings: 30 pM enzyme, 1.25 μM CCF2-FA, 2 hours at 25° C.; read-out: VIM1 IC50
Method: as §1

[7] = tested on: P. aeruginosa MB9798 (efflux WT, IMP-1); experiment: Efflux: concentration of MBL inhibitor restoring susceptibility to imipenem (MITC95), efflux+ strain; assay type: cell-based, Pseudomonas aeruginosa; settings: imipenem at 2 μg/mL in the presence of a class A, C, D serine β-lactamase inhibitor closely related to relebactam
Text: (§5) In order to assess the contribution of efflux to lack of whole cell inhibition of metallo-beta-lactamase inhibitors of formula I, tool strains were constructed. The strain background is Pseudomonas aeruginosa PAO1. A wild-type (MB5919) and an isogenic strain in which multiple efflux pumps have been disrupted genetically were used. The MBL IMP-1, obtained from a clinical isolate was introduced into the strain pair by the following process:
(§6) Plasmid DNA (encoding IMP-1) was extracted from CL 5673 (IMP-1, P. aeruginosa clinical strain) by standard techniques. The plasmid DNA was transformed into parental MB5919 (oprD+, efflux+, inducible AmpC) and MB5890 (oprD+, efflux−, inducible AmpC) isogenic strains by electroporation. These transformed strains were plated onto cation-adjusted Muller-Hinton agar plates containing ceftazidime at 32 μg/mL (MB5919) and 16 μg/mL (MB5890) to select for those cells in which the IMP-1-expressing plasmid was introduced successfully, resulting in resistance to ceftazidime. Agarose-gel electrophoresis of PCR product for IMP-1 from the successful transformants was used to compare to control and to the original strain from which the plasmid was obtained, confirming transfer of the IMP-1 gene (data not shown).
(§7) The strain set was then used as a pair to determine the effect of metallo-β-lactamase inhibitors of Formula Ion the MIC of imipenem and/or ceftazidime. A fixed concentration of antibiotic is included in standard microbroth MIC tests, usually at the CLSI breakpoint concentration. A fixed amount of a class A/C beta-lactamase inhibitor is also included to inhibit the resident Pseudomonas AmpC enzyme. A serial titration of the metallo-β-lactamase inhibitor was included and the concentration of metallo-β-lactamase inhibitor which restores susceptibility of the strain to the included antibiotic was recorded. That concentration of metallo-β-lactamase inhibitor was then compared between the two strains to determine the fold difference between the efflux+(MB9798) and efflux−(MB9799) strains, which indicates n the extent to which the MBLi is subject to efflux.

[8] = tested on: P. aeruginosa MB9799 (efflux mutant, IMP-1); experiment: Efflux: concentration of MBL inhibitor restoring susceptibility to imipenem (MITC95), efflux− strain; assay type: cell-based, Pseudomonas aeruginosa; settings: imipenem at 2 μg/mL in the presence of a class A, C, D serine β-lactamase inhibitor closely related to relebactam
Text: as §5, §6, §7

[9] = biological target: VIM-2 (Escherichia coli, UniProt Q5U7L7); experiment: Enzyme activity: determination of IC50 (VIM-2); assay type: biochemical; settings: read-out: VIM2 IC50

Sequence of IMP-1 (P52699 19-246, looked up, species assumed): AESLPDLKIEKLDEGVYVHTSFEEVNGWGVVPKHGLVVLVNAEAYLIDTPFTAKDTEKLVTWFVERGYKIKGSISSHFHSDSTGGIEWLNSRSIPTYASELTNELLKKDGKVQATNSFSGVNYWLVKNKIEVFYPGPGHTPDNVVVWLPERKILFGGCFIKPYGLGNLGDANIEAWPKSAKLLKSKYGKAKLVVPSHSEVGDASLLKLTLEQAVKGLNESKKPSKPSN

Compound: NCC(CN)NS(=O)(=O)c1ccc(N2CCn3ccnc3C2)c(-c2nn[nH]n2)c1S(N)(=O)=O [Example 10, N1-(1,3-diaminopropan-2-yl)-4-(5,6-dihydroimidazo[1,2-a]pyrazin-7(8H)-yl)-3-(2H-tetrazol-5-yl)benzene-1,2-disulfonamide]
- IC50 [1]: 2.96 nM
- IC50 [2]: 1.17 nM
- CL5741 S.marcescens MITC95 uM IMP [3]: 0.39 µM
- CLB30016 E.coli MITC95 NDM [4]: 0.10 µM
- IHMA599644 K.pneumoniae MITC95 uM VIM [5]: 1.56 µM
- IC50 [6]: 0.25 nM
- MB9798 MITC95 P. aeruginosa Efflux WT [7]: 3.13 µM
- MB9799 MITC95 P. aeruginosa Efflux Mutant [8]: 1.56 µM
- IC50 [9]: 0.99 nM

Compound: NCC(CN)NS(=O)(=O)c1ccc(N2CCCn3ccnc32)c(-c2nn[nH]n2)c1S(N)(=O)=O [Example 11, N1-(1,3-diaminopropan-2-yl)-4-(6,7-dihydroimidazo[1,2-a]pyrimidin-8(5H)-yl)-3-(2H-tetrazol-5-yl)benzene-1,2-disulfonamide]
- IC50 [1]: 4.55 nM
- IC50 [2]: 1.95 nM
- CL5741 S.marcescens MITC95 uM IMP [3]: 0.78 µM
- CLB30016 E.coli MITC95 NDM [4]: 0.20 µM
- IHMA599644 K.pneumoniae MITC95 uM VIM [5]: 1.56 µM
- IC50 [6]: 1.26 nM
- MB9798 MITC95 P. aeruginosa Efflux WT [7]: 2.34 µM
- MB9799 MITC95 P. aeruginosa Efflux Mutant [8]: 1.17 µM
- IC50 [9]: 3.71 nM

Compound: NCCNS(=O)(=O)c1ccc(N2CCCn3ccnc32)c(-c2nn[nH]n2)c1S(N)(=O)=O [Example 12, N1-(2-aminoethyl)-4-(6,7-dihydroimidazo[1,2-a]pyrimidin-8(5H)-yl)-3-(2H-tetrazol-5-yl)benzene-1,2-disulfonamide]
- IC50 [1]: 4.69 nM
- IC50 [2]: 1.58 nM
- CL5741 S.marcescens MITC95 uM IMP [3]: 0.20 µM
- CLB30016 E.coli MITC95 NDM [4]: 0.05 µM
- IHMA599644 K.pneumoniae MITC95 uM VIM [5]: 0.39 µM
- IC50 [6]: 0.6 nM
- MB9798 MITC95 P. aeruginosa Efflux WT [7]: 0.78 µM
- MB9799 MITC95 P. aeruginosa Efflux Mutant [8]: 0.20 µM
- IC50 [9]: 2.17 nM

Compound: NS(=O)(=O)c1c(S(=O)(=O)N[C@@H]2CCNC2)ccc(N2CCCn3ccnc32)c1-c1nnn[nH]1 [Example 13, (R)-4-(6,7-dihydroimidazo[1,2-a]pyrimidin-8(5H)-yl)-N1-(pyrrolidin-3-yl)-3-(1H-tetrazol-5-yl)benzene-1,2-disulfonamide]
- IC50 [1]: 9.7 nM
- IC50 [2]: 0.77 nM
- CL5741 S.marcescens MITC95 uM IMP [3]: 0.39 µM
- CLB30016 E.coli MITC95 NDM [4]: 0.20 µM
- IHMA599644 K.pneumoniae MITC95 uM VIM [5]: 0.78 µM
- IC50 [6]: 0.39 nM
- MB9798 MITC95 P. aeruginosa Efflux WT [7]: 1.56 µM
- MB9799 MITC95 P. aeruginosa Efflux Mutant [8]: 0.78 µM
- IC50 [9]: 2.16 nM

Compound: C[C@H](N)CNS(=O)(=O)c1ccc(N2CCCn3ccnc32)c(-c2nn[nH]n2)c1S(N)(=O)=O [Example 14, (S)-N1-(2-aminopropyl)-4-(6,7-dihydroimidazo[1,2-a]pyrimidin-8(5H)-yl)-3-(2H-tetrazol-5-yl)benzene-1,2-disulfonamide]
- IC50 [1]: 6.32 nM
- IC50 [2]: 1.61 nM
- CL5741 S.marcescens MITC95 uM IMP [3]: 0.39 µM
- CLB30016 E.coli MITC95 NDM [4]: 0.10 µM
- IHMA599644 K.pneumoniae MITC95 uM VIM [5]: 1.56 µM
- IC50 [6]: 0.97 nM
- MB9798 MITC95 P. aeruginosa Efflux WT [7]: 3.13 µM
- MB9799 MITC95 P. aeruginosa Efflux Mutant [8]: 0.78 µM
- IC50 [9]: 2.6 nM

Compound: NC[C@H](CO)NS(=O)(=O)c1ccc(N2CCCn3ccnc32)c(-c2nnn[nH]2)c1S(N)(=O)=O [Example 15, (R)-N1-(1-amino-3-hydroxypropan-2-yl)-4-(6,7-dihydroimidazo[1,2-a]pyrimidin-8(5H)-yl)-3-(1H-tetrazol-5-yl)benzene-1,2-disulfonamide]
- IC50 [1]: 8.9 nM
- IC50 [2]: 2.35 nM
- CL5741 S.marcescens MITC95 uM IMP [3]: 0.39 µM
- CLB30016 E.coli MITC95 NDM [4]: 0.20 µM
- IHMA599644 K.pneumoniae MITC95 uM VIM [5]: 1.56 µM
- IC50 [6]: 1 nM
- MB9798 MITC95 P. aeruginosa Efflux WT [7]: 3.13 µM
- MB9799 MITC95 P. aeruginosa Efflux Mutant [8]: 0.78 µM
- IC50 [9]: 2.66 nM

Compound: NC[C@@H](O)CNS(=O)(=O)c1ccc(N2CCCn3ccnc32)c(-c2nnn[nH]2)c1S(N)(=O)=O [Example 16, (R)-N1-(3-amino-2-hydroxypropyl)-4-(6,7-dihydroimidazo[1,2-a]pyrimidin-8(5H)-yl)-3-(1H-tetrazol-5-yl)benzene-1,2-disulfonamide]
- IC50 [1]: 5.93 nM
- IC50 [2]: 1.2 nM
- CL5741 S.marcescens MITC95 uM IMP [3]: 0.39 µM
- CLB30016 E.coli MITC95 NDM [4]: 0.10 µM
- IHMA599644 K.pneumoniae MITC95 uM VIM [5]: 1.56 µM
- IC50 [6]: 0.38 nM
- MB9798 MITC95 P. aeruginosa Efflux WT [7]: 3.13 µM
- MB9799 MITC95 P. aeruginosa Efflux Mutant [8]: 0.78 µM
- IC50 [9]: 1.01 nM

Compound: C[C@H](CN)NS(=O)(=O)c1ccc(N2CCCn3ccnc32)c(-c2nnn[nH]2)c1S(N)(=O)=O [Example 17, (R)-N1-(1-aminopropan-2-yl)-4-(6,7-dihydroimidazo[1,2-a]pyrimidin-8(5H)-yl)-3-(1H-tetrazol-5-yl)benzene-1,2-disulfonamide]
- IC50 [1]: 2.17 nM
- IC50 [2]: 0.36 nM
- CL5741 S.marcescens MITC95 uM IMP [3]: 0.78 µM
- CLB30016 E.coli MITC95 NDM [4]: 0.78 µM
- IHMA599644 K.pneumoniae MITC95 uM VIM [5]: 1.56 µM
- IC50 [6]: 0.22 nM
- MB9798 MITC95 P. aeruginosa Efflux WT [7]: 1.56 µM
- MB9799 MITC95 P. aeruginosa Efflux Mutant [8]: 0.78 µM
- IC50 [9]: 1.11 nM

Compound: NC[C@H](O)CNS(=O)(=O)c1ccc(N2CCCn3ccnc32)c(-c2nnn[nH]2)c1S(N)(=O)=O [Example 18, (S)-N1-(3-amino-2-hydroxypropyl)-4-(6,7-dihydroimidazo[1,2-a]pyrimidin-8(5H)-yl)-3-(1H-tetrazol-5-yl)benzene-1,2-disulfonamide]
- IC50 [1]: 8.07 nM
- IC50 [2]: 1.87 nM
- CL5741 S.marcescens MITC95 uM IMP [3]: 0.39 µM
- CLB30016 E.coli MITC95 NDM [4]: 0.10 µM
- IHMA599644 K.pneumoniae MITC95 uM VIM [5]: 1.56 µM
- IC50 [6]: 0.76 nM
- MB9798 MITC95 P. aeruginosa Efflux WT [7]: 3.13 µM
- MB9799 MITC95 P. aeruginosa Efflux Mutant [8]: 0.78 µM
- IC50 [9]: 1.99 nM
